Reference: a melting point compilation (Tetko et al.; mined from patent text by program, amines drawn as free bases though some values may be those of a salt)

Structure (SMILES)	melting point [°C]
Cc1nc(CC(C)C)c(CN)c(-c2ccc(Cl)cc2)c1C(=O)OC(C)(C)C	81 to 83
COC(=O)c1ccc(C(=O)NS(=O)(=O)c2ccc(C(=O)NCCc3ccccc3OC)cc2)cn1	220 to 222
O=C1CN=C(c2ccccc2)c2ccccc2N1	180 to 181
CC(C)=CCC/C(C)=C/CSc1nc2ccccc2[nH]1	98 to 100
O=Cc1c2ccccc2cc2cc3ccccc3cc12	163 to 164
Cc1c(NCC(C)(C)CNCC(O)COc2ccccc2)n(C)c(=O)n(C)c1=O (centres undefined)	111 to 112
O=C(CCCC1CCN(Cc2ccccc2)CC1)c1ccc(F)cc1	53 to 55
Cc1c(C)c2c(c(C)c1NC(=O)c1ccc(Cl)cc1)C(c1ccc(C(C)C)cc1)C(C)(C)O2 (centres undefined)	201 to 203
COc1ccc2c(c1)C(Oc1ccccc1)=C(C(=O)O)S2=O (centres undefined)	204 to 206
CC(C)(OCc1n[nH]c2ccccc12)C(=O)O	135 to 137
CCOP(=O)(COc1ccc(CO)cc1N)OCC	181 to 184
COC(=O)c1ccc2oc3ccccc3c2c1C(=O)OC	126
OC(CCCC(O)c1ccccc1)c1ccccc1 (centres undefined)	64 to 67
CC(C)(C)CNS(=O)(=O)c1cccc(NC(=O)c2cnn3c(C(F)(F)F)cc(-c4ccc(C(F)(F)F)cc4)nc23)c1	231
O=C(NC(=O)c1c(F)cccc1F)Nc1cc(C(F)(F)F)cc(C(F)(F)F)n1	152
Cc1cnc(C2=NC(C)(C(C)C)C(=O)N2)c(C(=O)C(=O)N(C)C)c1 (centres undefined)	180 to 182
C=CCOC1CCC2C3CCC4CC(=O)CCC4(C)C3CCC12C (centres undefined)	122 to 124
O=C(NC1CCSCC1)c1cnccc1C(F)(F)F	161 to 163
CCn1cc(C(=O)O)c(=O)c2c1SC(=NOCC(=O)O)C2	249 to 250

Structure (SMILES)	melting point [°C]
CC1(C)CSc2c(-c3ccccc3)c(-c3ccc(Cl)cc3)cn2C1	147 to 148
Cc1nc(N2CCN(Cc3ccc(OC(F)F)cc3)C2=O)sc1C(=O)NCc1cccnc1	166 to 167
CSc1ccc(CCCOCCCCCCNCC(O)c2ccc3c(n2)COC(c2ccccc2)O3)cc1 (centres undefined)	70
CCOC(=O)c1ccc(N2CCN(C(=O)N(CC)CC)CC2)cc1	77 to 82
CC(=O)OCC1OC(n2cnc3c(N)ncnc32)CC1O (centres undefined)	150 to 152
CCNC(=O)n1nc(Oc2ccc([N+](=O)[O-])cc2)cc1C	105 to 107
CN(C)CCc1[nH]c2ccccc2c1CSC1=NCCS1	140 to 143
CC(Br)CCCCN1C(=O)c2ccccc2C1=O (centres undefined)	48 to 51
CCOP(=S)(OCC)Oc1nsc(N(C)C)n1	48
Clc1ccc(C2CCN3c4ccccc4C4=NCCN4C23)cc1 (centres undefined)	158 to 160
CCOC(=O)c1cc(NCc2ccccc2)c(Oc2cccc(C(F)(F)F)c2)c(S(N)(=O)=O)c1	166 to 168
c1ccc(CCCNc2ccc(-c3cc(-c4ccc(NCCCc5ccccc5)cc4)cc(-c4ccc(NCCCc5ccccc5)cc4)c3)cc2)cc1	105
COc1cc([N+](=O)[O-])c2nccc(C)c2c1Oc1cccc(C(F)(F)F)c1	206 to 208
CC(C)(C)OC(=O)NC1(CCOS(C)(=O)=O)CC1	88 to 89
O=S1(=O)c2cccc3cccc(c23)N1CCN1CCC(Cc2cnc3ccccc3c2)CC1	150
O=C(Nc1cccc(-n2nc(C(F)(F)F)cc2C(F)(F)F)c1)c1ccc(F)cc1F	133 to 134
CNC(=O)c1cc2c(Oc3ccc(-c4noc(C(F)(F)F)n4)cc3)cncc2s1	174 to 176
O=c1[nH]c2ccccc2n1C1=CCN(C2C=CC(c3ccc(F)cc3)(c3ccc(F)cc3)CC2)CC1 (centres undefined)	200 to 202
COC(=O)c1cccc(-c2noc(C)n2)c1	81

Structure (SMILES)	melting point [°C]
CC(C)C(=O)C(C)(C)SN(C)C(=O)ON=C1SC(C)(C)C(=O)N1C	112 to 114
CNC(=O)Nc1ccc2c(c1Cl)C(c1ccccc1F)=NCC(=O)N2C	145 to 160
CCOC(=O)C(=O)N(c1ccccc1N)C(C)(C)C	64 to 65
COC(=O)Nc1nc2ccc(Sc3ccccc3)cn2c1C(=O)C(F)(F)F	171 to 173
CCc1[nH]n(C2CCCC2)c2nc(S(C)(=O)=O)nc(=O)c1-2	> 300
COc1ccc(N2C(=O)C(C)N(c3ccc(Oc4ccc(O)cc4)cc3)C2=S)cc1 (centres undefined)	196 to 198
O=C1C(=O)N(CCCCN2CCN(C(c3ccccc3)c3ccccc3)CC2)c2ccc(Br)cc21	132 to 133
Cc1ccc(Nc2nc(-c3cccc(C#N)c3)cs2)nc1	268 to 272
CCOC(=O)/C=C/c1cnn(Cc2ccc(OCc3nc(-c4ccccc4)oc3C)cc2)c1	112 to 113
CSc1ccc(/C=C(\NC(=O)c2ccc(OCC(C)C)cc2)C(=O)NCCO)cc1	161 to 163
CO[C@]12C[C@@H](CN3CCC(O)(c4ccc(Cl)cc4)CC3)CN(C)[C@@H]1Cc1c[nH]c3cccc2c13	144 to 148
CC(C)c1cc(O)c2c(c1)OC(C)(C)C1=C2CN(CC(=O)NC(N)=O)CC1	164 to 166
CCCC=NNc1cc2c(nn1)CCN(C(=O)OCC)C2	142 to 146
CCn1c(=O)c2[nH]c(/C=C/c3cc(OC)cc(OC)c3)nc2n(CC)c1=O	> 270
COc1ccc(C(=O)N2CCc3cc(S(=O)(=O)N4CCN(c5cccc(Cl)c5)CC4)ccc32)cc1	193 to 194
CC(C)NCc1cccc(Cn2ccc(OCc3ccc(F)cc3F)c(Br)c2=O)c1	109 to 110
COC(=O)CCCc1cc2nc(C(F)(F)F)ccc2n1S(=O)(=O)c1ccccc1	95
Cc1nc(-c2cn(CC(F)(F)c3ccccc3)nn2)sc1C(=O)NCc1cccnc1	150 to 151

Other lines, results leading:

melting point [°C]	Structure (SMILES)
119 to 121	CC#CC(Cc1cccnc1)(C(=O)O)S(=O)(=O)c1ccc(OC)cc1 (centres undefined)
182 to 183	COc1cc2c(cc1C=NO)C(C)(C)CCC2(C)C
189 to 190	COc1ccccc1CNC(=O)c1oc(=O)c2ncccc2c1-c1ccc(C)cc1
92 to 93	COC(=O)c1nc(Br)nc(Br)c1Cl
252 to 257	COCCNC(=O)Nc1nc2ccc(Sc3nnc4ccccn34)cc2s1
184	COC(=O)c1cc(Cl)c(NC(C)=O)c2c1OCCC2
144	O=C(O)CC1CCCc2cc(S(=O)(=O)c3ccccc3)ccc21 (centres undefined)
125 to 126	C#CCOc1cc(-n2nc(C)c([N+](=O)[O-])c2C)c(F)cc1Cl
246 to 248	Cc1c(-c2ccccc2)n(-c2cccc(S(C)(=O)=O)c2)c(-c2ccccc2)cc1=O
90 to 92	O=C(O)C(Cc1ccccc1)Oc1c(Br)cc(-c2ccc(-c3c(Cc4ccccc4)oc4ccccc34)cc2)cc1Br (centres undefined)
88 to 90	CC(NC(=O)OC(C)(C)C)c1cc(F)c(N)c(I)c1 (centres undefined)
195 to 197	CN(C)c1ccc2c(c1)C(=O)N(c1ccc3ccsc3c1)C2
110 to 112	CC(Nc1ccccc1)=C(C#N)C(=O)Nc1ccccc1Cl
150 to 152	O=C(NCCc1c[nH]c2ccccc12)c1cccnc1
170 to 175	O=C(O)CP(=O)(O)C(CCCc1ccccc1)NC(=O)c1ccccc1 (centres undefined)
55 to 57	CNCCCS(=O)(=O)CCCC(F)(F)C(F)(F)F
86 to 87	C#CC1CCC2(CC1)SCC(C(C)(C)C)CS2 (centres undefined)
220 to 222	CCNc1cccc2c(S(=O)(=O)Nc3cnc(Br)cn3)cccc12
186 to 189	O=C(O)CC1CCC2CC(=O)NC12 (centres undefined)
121 to 122	Cc1nc(-c2ccc(I)cc2)no1
155 to 156	COc1cc(CCCC2OC(=O)NC2=O)cc(OC)c1O (centres undefined)
222	O=C(N[C@H]1CC[C@H](CCN2CCN(c3nccc4c3CCO4)CC2)CC1)c1ccc(N2CCOCC2)nc1

melting point [°C]	Structure (SMILES)
134 to 137	COc1cc(C(=O)NS(=O)(=O)c2ccccc2Cl)ccc1Cn1cc(CCC(=O)N(C)C)c2ccc(CCC(=O)N(C)C)cc21
180	Cc1cc(COc2nn3c(-c4ccccc4)nnc3cc2-c2ccccc2)no1
177	COc1c(C)c(=O)oc2cc(-c3nnc(C)s3)ccc12
76 to 77	COC(=O)[C@@H](NC(=O)OC(C)(C)C)[C@@H](S)c1ccccc1
108 to 109	CS(=O)c1ccc(C2=CC(=O)C(C)(C)O2)cc1 (centres undefined)
145 to 146	C#CCOCCn1c(N2CCN(C)CC2)nc2ccccc21
93 to 95	CC#CCCn1ncc2c(OCC)c(C(=O)OCC)cnc21
129 to 131	CC(C)c1ccc(C2COc3cc(O)c(O)cc3C2)cc1 (centres undefined)
100 to 102	COc1cc(C(=O)N(C)OC)c2oc(-c3ccc(OC)c(F)c3)cc2c1
106 to 108	COC(=O)CCC(=O)c1ccc2oc3ccccc3c2c1
264	Cn1cc(C(=O)O)c(=O)c2cc3cc(F)c(N4CCNC(c5ccccc5F)C4)cc3nc21 (racemic)
192	CCOC(=O)c1c(C(F)(F)F)nc2ccccc2c1O
107 to 108	CCCCCS(=O)(=O)NC(=O)CCc1ccc(OCCOC)cc1OCc1ccc(Cl)cc1Cl
118 to 120	CC(C)(C)OC(=O)NC(Cc1ccccc1)C(O)CNCC(O)C(Cc1ccc(OCC(=O)N2CCOCC2)cc1)NC(=O)OC(C)(C)C (centres undefined)
191 to 194	CC(=Cc1ccc(Oc2cccnc2)cc1)C(=O)O
93 to 95	OC(CCc1cccnc1)COc1ccc2ccccc2c1 (centres undefined)
118 to 122	O=C(c1cc(C2=CCCCC2)ccn1)N(O)Cc1ccccc1
100 to 101	COc1c(C)ccc(C(C)C)c1CO
197 to 199	CC(=O)NN1CC(C)=NNC1=O
172 to 173	Cc1cc(Br)cnc1CCCCNc1ncc(Cc2ccc(F)cc2)c(=O)[nH]1
148 to 150	COc1cc(Cl)ccc1N=c1scc(-c2ccc(Cl)c(S(=O)(=O)N(C)C)c2)n1C
